Reference: ChEMBL document CHEMBL1130318, “Inhibition of stromelysin-1 (MMP-3) by P1'-biphenylylethyl carboxyalkyl dipeptides” (J Med Chem, 1997)

Key:
Stromelysin-1 = Stromelysin-1 (Homo sapiens, UniProt P08254)
Description: Inhibition of human stromelysin-1 (Matrix metalloprotease-3)

[1] = target: 72 kDa type IV collagenase (Homo sapiens, UniProt P08253)
Description: Inhibition of gelatinase A (Matrix metalloprotease-2)

Mus musculus = assay: Effective dose for inhibition of MMP-3 mediated degradation of radiolabeled transferrin in the mouse pleural cavity (PLCAV) after 60 mpk oral dose of inhibitor.; assay type: functional
[2] = Clearance was measured in rat after administration of compound 20 mg/kg intravenously; assay type: ADME, organism-based; parameters: dose 20 mg/kg, route intravenous; details: in vivo, iv
[3] = Clearance was measured in mouse after administration of compound 20 mg/kg intravenously; assay type: ADME, organism-based; parameters: dose 20 mg/kg, route intravenous; details: in vivo, iv
[4] = Percent oral bioavailability was measured in rat after administration of compound 20 mg/kg perorally; assay type: ADME, organism-based; details: in vivo
[5] = Percent oral bioavailability was measured in mouse after administration of compound 20 mg/kg perorally; assay type: ADME, organism-based; details: in vivo
[6] = Volume distribution was measured in mouse after administration of compound 20 mg/kg intravenously; assay type: ADME, organism-based; parameters: dose 20 mg/kg, route intravenous; details: in vivo, iv, read-out: Vdss
[7] = Volume distribution was measured in rat after administration of compound 20 mg/kg intravenously; assay type: ADME, organism-based; parameters: dose 20 mg/kg, route intravenous; details: in vivo, iv, read-out: Vdss
[8] = Plasma half-life was measured in mouse after administration of compound 20 mg/kg intravenously; assay type: ADME, organism-based; parameters: dose 20 mg/kg, route intravenous; details: iv
[9] = Plasma half-life was measured in rat after administration of compound 20 mg/kg intravenously; assay type: ADME, organism-based; parameters: dose 20 mg/kg, route intravenous; details: iv
[10] = Clearance was measured in rabbit after administration of compound 12 mg/kg intravenously; details: in vivo, iv
[11] = Plasma half-life was measured in rabbit after administration of compound 12 mg/kg intravenously; details: iv
[12] = Volume distribution was measured in rabbit after administration of compound 12 mg/kg intravenously; details: in vivo, iv, read-out: Vdss

72 kDa type IV collagenase, sequence (P08253 whole entry): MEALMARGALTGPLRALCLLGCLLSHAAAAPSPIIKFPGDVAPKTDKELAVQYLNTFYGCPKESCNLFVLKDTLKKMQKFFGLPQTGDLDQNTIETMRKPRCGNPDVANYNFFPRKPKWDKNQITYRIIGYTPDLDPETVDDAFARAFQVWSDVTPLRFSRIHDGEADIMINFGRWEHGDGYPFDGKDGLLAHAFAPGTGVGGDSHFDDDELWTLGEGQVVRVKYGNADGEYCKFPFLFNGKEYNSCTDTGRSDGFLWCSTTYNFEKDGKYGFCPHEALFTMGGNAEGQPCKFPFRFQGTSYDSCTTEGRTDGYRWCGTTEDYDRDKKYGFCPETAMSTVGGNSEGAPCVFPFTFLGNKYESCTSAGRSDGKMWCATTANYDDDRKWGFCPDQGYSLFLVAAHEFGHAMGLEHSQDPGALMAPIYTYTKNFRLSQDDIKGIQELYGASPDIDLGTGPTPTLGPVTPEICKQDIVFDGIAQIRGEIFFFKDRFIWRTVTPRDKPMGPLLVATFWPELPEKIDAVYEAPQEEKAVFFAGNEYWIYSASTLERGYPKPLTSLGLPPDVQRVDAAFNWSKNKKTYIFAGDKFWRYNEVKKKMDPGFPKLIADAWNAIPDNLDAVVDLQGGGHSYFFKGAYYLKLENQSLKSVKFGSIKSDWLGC
Stromelysin-1, sequence (P08254 whole entry): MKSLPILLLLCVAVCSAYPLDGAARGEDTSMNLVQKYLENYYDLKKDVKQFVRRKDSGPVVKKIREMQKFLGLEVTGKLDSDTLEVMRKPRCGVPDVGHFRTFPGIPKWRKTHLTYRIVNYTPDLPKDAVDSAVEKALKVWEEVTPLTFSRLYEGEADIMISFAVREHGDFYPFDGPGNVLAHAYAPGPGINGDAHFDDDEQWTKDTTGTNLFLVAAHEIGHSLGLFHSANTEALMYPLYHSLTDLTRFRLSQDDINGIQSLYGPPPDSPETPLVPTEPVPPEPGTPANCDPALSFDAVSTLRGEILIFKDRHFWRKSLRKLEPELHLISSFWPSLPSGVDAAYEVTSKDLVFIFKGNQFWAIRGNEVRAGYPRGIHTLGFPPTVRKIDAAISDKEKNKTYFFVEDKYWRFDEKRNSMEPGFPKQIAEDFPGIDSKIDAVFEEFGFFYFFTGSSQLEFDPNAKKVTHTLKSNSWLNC

## CCCC[C@@H](C[C@@H](CCc1ccc(-c2ccc(Cl)cc2Cl)cc1)C(=O)N[C@H](C(=O)NC)C(C)(C)C)C(=O)O
Stromelysin-1
  Ki: 12 nM
[1]
  Ki: 100 nM

## CCCC[C@@H](C[C@@H](CCc1ccc(-c2ccccc2F)cc1)C(=O)N[C@H](C(=O)NC)C(C)(C)C)C(=O)O
Stromelysin-1
  Ki: 11 nM
[1]
  Ki: 61 nM

## CCCC[C@@H](C[C@@H](CCc1ccc(-c2ccc(F)cc2)cc1)C(=O)N[C@H](C(=O)Nc1ccccc1)C(C)(C)C)C(=O)O
Stromelysin-1
  Ki: 4 nM
[1]
  Ki: 150 nM

## CCCC[C@@H](C[C@@H](CCc1ccc(-c2ccc([S+](C)[O-])cc2)cc1)C(=O)N[C@H](C(=O)NC)C(C)(C)C)C(=O)O (some centres not stated)
Stromelysin-1
  Ki: 52 nM
[1]
  Ki: 30 nM

## CC(C)C[C@H](NC(=O)[C@H](CCc1ccc(-c2ccc(F)cc2)cc1)C[C@H](C)C(=O)O)C(=O)Nc1ccccc1
Stromelysin-1
  Ki: 38 nM

## CCCC[C@@H](C[C@@H](CCc1ccc(-c2ccccc2S(N)(=O)=O)cc1)C(=O)N[C@H](C(=O)NC)C(C)(C)C)C(=O)O
Stromelysin-1
  Ki: 9400 nM

## CCCC[C@@H](C[C@@H](CCc1ccccc1)C(=O)N[C@H](C(=O)NC)C(C)(C)C)C(=O)O
Stromelysin-1
  Ki: 3800 nM
[1]
  Ki: 1500 nM

## CCCC[C@@H](C[C@@H](CCc1cccc(-c2ccsc2)c1)C(=O)N[C@H](C(=O)NC)C(C)(C)C)C(=O)O
Stromelysin-1
  Ki: 15 nM
[1]
  Ki: 21 nM

## CCCC[C@@H](C[C@@H](CCc1ccc(-c2cc3ccccc3[nH]2)cc1)C(=O)N[C@H](C(=O)NC)C(C)(C)C)C(=O)O
Stromelysin-1
  Ki: 12 nM
[1]
  Ki: 49 nM

## CCCC[C@@H](C[C@@H](CCc1ccc(-c2c(C)cccc2C)cc1)C(=O)N[C@H](C(=O)NC)C(C)(C)C)C(=O)O
Stromelysin-1
  Ki: 1200 nM
[1]
  Ki: 1300 nM

## CCCC[C@@H](C[C@@H](CCc1ccc(-c2ccccc2S(=O)(=O)NC(C)(C)C)cc1)C(=O)N[C@H](C(=O)NC)C(C)(C)C)C(=O)O
Stromelysin-1
  Ki: 10 nM
[1]
  Ki: 17 nM

## CCCC[C@@H](C[C@@H](CCc1ccc(-c2ccc(F)cc2)cc1)C(=O)N[C@H](C(=O)Nc1ccncc1)C(C)(C)C)C(=O)O
Stromelysin-1
  Ki: 2 nM
[1]
  Ki: 25 nM

## CCCC[C@@H](C[C@@H](CCc1ccc(-c2ccc(-c3ncc[nH]3)cc2)cc1)C(=O)N[C@H](C(=O)NC)C(C)(C)C)C(=O)O
Stromelysin-1
  Ki: 25 nM
[1]
  Ki: 94 nM

## CCCC[C@@H](C[C@@H](CCc1ccc(-c2ccc3ccccc3c2)cc1)C(=O)N[C@H](C(=O)NC)C(C)(C)C)C(=O)O
Stromelysin-1
  Ki: 120 nM

## CCCC[C@@H](C[C@@H](CCc1ccc(-c2cccc(F)c2)cc1)C(=O)N[C@H](C(=O)NC)C(C)(C)C)C(=O)O
Stromelysin-1
  Ki: 21 nM
[1]
  Ki: 48 nM

## CCCC[C@@H](C[C@@H](CCc1ccc(C2CCCCCC2)cc1)C(=O)N[C@H](C(=O)NC)C(C)(C)C)C(=O)O
Stromelysin-1
  Ki: 95 nM
[1]
  Ki: 1900 nM

## CCCC[C@@H](C[C@@H](CCc1ccc(-c2ccc(C=O)cc2)cc1)C(=O)N[C@H](C(=O)NC)C(C)(C)C)C(=O)O
Stromelysin-1
  Ki: 15 nM
[1]
  Ki: 16 nM

## CCCC[C@@H](C[C@@H](CCc1ccc(-c2ccc(SC)cc2)cc1)C(=O)N[C@H](C(=O)NC)C(C)(C)C)C(=O)O
Stromelysin-1
  Ki: 5 nM
[1]
  Ki: 13 nM

## CCCC[C@@H](C[C@@H](CCc1ccc(-c2ccc(-c3ccccc3)cc2)cc1)C(=O)N[C@H](C(=O)NC)C(C)(C)C)C(=O)O
Stromelysin-1
  Ki: 39 nM
[1]
  Ki: 84 nM

## CC(C)C[C@H](NC(=O)[C@H](CCc1ccc(-c2ccccc2)cc1)C[C@H](C)C(=O)O)C(=O)Nc1ccccc1
Stromelysin-1
  Ki: 82 nM

## CCCC[C@@H](C[C@@H](CCc1ccc(C2CCCO2)cc1)C(=O)N[C@H](C(=O)NC)C(C)(C)C)C(=O)O (some centres not stated)
Stromelysin-1
  Ki: 1400 nM
[1]
  Ki: 810 nM

## CCCC[C@@H](C[C@@H](CCc1ccc(-c2ccc(C(F)(F)F)cc2)cc1)C(=O)N[C@H](C(=O)NC)C(C)(C)C)C(=O)O
Stromelysin-1
  Ki: 37 nM
[1]
  Ki: 39 nM

## CCCC[C@@H](C[C@@H](CCc1ccc(Cc2ccccc2)cc1)C(=O)N[C@H](C(=O)Nc1ccccc1)C(C)(C)C)C(=O)O
Stromelysin-1
  Ki: 1400 nM
[1]
  Ki: 16 nM

## CCCc1ccc(CC[C@H](C[C@H](C)C(=O)O)C(=O)N[C@@H](CC(C)C)C(=O)Nc2ccccc2)cc1
Mus musculus
  ED50: 32 mg/kg

## CCCC[C@@H](C[C@@H](CCc1ccc(-c2ccc(C(=O)O)cc2)cc1)C(=O)N[C@H](C(=O)NC)C(C)(C)C)C(=O)O
Stromelysin-1
  Ki: 690 nM
[1]
  Ki: 580 nM

## CCCc1ccc(CC[C@H](N[C@H](C)C(=O)O)C(=O)N[C@@H](CC(C)C)C(=O)Nc2ccccc2)cc1
Mus musculus
  ED50: 65 mg/kg

## CCCC[C@@H](C[C@@H](CCc1cccc(-c2ccccc2)c1)C(=O)N[C@H](C(=O)NC)C(C)(C)C)C(=O)O
Stromelysin-1
  Ki: 1500 nM
[1]
  Ki: 2400 nM

## CCCC[C@@H](C[C@@H](CCc1ccc(/C=C/c2ccccc2)cc1)C(=O)N[C@H](C(=O)NC)C(C)(C)C)C(=O)O
Stromelysin-1
  Ki: 65 nM
[1]
  Ki: 760 nM

## CCCC[C@@H](C[C@@H](CCc1ccc(OCc2ccccc2)cc1)C(=O)N[C@H](C(=O)NC)C(C)(C)C)C(=O)O
Stromelysin-1
  Ki: 74 nM
[1]
  Ki: 210 nM

## CCCC[C@@H](C[C@@H](CCc1ccc(CCC)cc1)C(=O)N[C@H](C(=O)NC)C(C)(C)C)C(=O)O
Stromelysin-1
  Ki: 140 nM
[1]
  Ki: 47 nM

## CCCC[C@@H](C[C@@H](CCc1ccc(-c2ccc(C#N)cc2)cc1)C(=O)N[C@H](C(=O)NC)C(C)(C)C)C(=O)O
Stromelysin-1
  Ki: 9 nM
[1]
  Ki: 14 nM

## CCCC[C@@H](C[C@@H](CCc1ccc(CCc2ccccc2)cc1)C(=O)N[C@H](C(=O)NC)C(C)(C)C)C(=O)O
Stromelysin-1
  Ki: 49 nM
[1]
  Ki: 380 nM

## CCCC[C@@H](C[C@@H](CCc1ccc(-c2ccc(Br)cc2)cc1)C(=O)N[C@H](C(=O)NC)C(C)(C)C)C(=O)O
Stromelysin-1
  Ki: 11 nM
[1]
  Ki: 17 nM

## CCCC[C@@H](C[C@@H](CCc1ccc(-c2ccc(S(C)(=O)=O)cc2)cc1)C(=O)N[C@H](C(=O)NC)C(C)(C)C)C(=O)O
Stromelysin-1
  Ki: 21 nM
[1]
  Ki: 19 nM

## CCCC[C@@H](C[C@@H](CCc1ccc(-c2ccc(F)cc2)cc1)C(=O)N[C@H](C(=O)NC)C(C)(C)C)C(=O)O
[2]
  clearance: 1.3 mL/min/kg
[3]
  clearance: 1.1 mL/min/kg
[4]
  bioavailability: 60%
[5]
  bioavailability: 78%
[6]
  Vd: 0.2 L/kg
[7]
  Vd: 0.32 L/kg
[8]
  half-life: 2.7 h
[9]
  half-life: 4.4 h
Stromelysin-1
  Ki: 10 nM
[1]
  Ki: 17 nM
[10]
  clearance: 7.6 mL/min/kg
[11]
  half-life: 0.9 h
[12]
  Vd: 0.2 L/kg

## CCCC[C@@H](C[C@@H](CCc1ccc(-c2ccc(F)c(Cl)c2)cc1)C(=O)N[C@H](C(=O)NC)C(C)(C)C)C(=O)O
Stromelysin-1
  Ki: 19 nM
[1]
  Ki: 80 nM

## CCCC[C@@H](C[C@@H](CCc1ccc(-c2ccc(C(N)=O)cc2)cc1)C(=O)N[C@H](C(=O)NC)C(C)(C)C)C(=O)O
Stromelysin-1
  Ki: 24 nM
[1]
  Ki: 38 nM

## CCCC[C@@H](C[C@@H](CCc1ccc(-c2ccc(C(=O)N(C)C)cc2)cc1)C(=O)N[C@H](C(=O)NC)C(C)(C)C)C(=O)O
Stromelysin-1
  Ki: 40 nM
[1]
  Ki: 50 nM

## CCCC[C@@H](C[C@@H](CCc1ccc(-c2ccc(C(=O)OC)cc2)cc1)C(=O)N[C@H](C(=O)NC)C(C)(C)C)C(=O)O
Stromelysin-1
  Ki: 31 nM
[1]
  Ki: 32 nM

## CCCC[C@@H](C[C@@H](CCc1ccc(-c2cccc3ccccc23)cc1)C(=O)N[C@H](C(=O)NC)C(C)(C)C)C(=O)O
Stromelysin-1
  Ki: 2000 nM
[1]
  Ki: 6900 nM

## CCCC[C@@H](C[C@@H](CCc1ccc(-c2cc(Cl)cc(Cl)c2)cc1)C(=O)N[C@H](C(=O)NC)C(C)(C)C)C(=O)O
Stromelysin-1
  Ki: 1500 nM
[1]
  Ki: 1600 nM

## CCCC[C@@H](C[C@@H](CCc1ccc(-c2ccc(C(=O)NC)cc2)cc1)C(=O)N[C@H](C(=O)NC)C(C)(C)C)C(=O)O
Stromelysin-1
  Ki: 49 nM
[1]
  Ki: 34 nM

## CCCC[C@@H](C[C@@H](CCc1ccc(-c2ccc(Cl)cc2)cc1)C(=O)N[C@H](C(=O)NC)C(C)(C)C)C(=O)O
Stromelysin-1
  Ki: 13 nM
[1]
  Ki: 25 nM

## CCCC[C@@H](C[C@@H](CCc1ccc(-c2ccc(-c3nnn[nH]3)cc2)cc1)C(=O)N[C@H](C(=O)NC)C(C)(C)C)C(=O)O
Stromelysin-1
  Ki: 350 nM
[1]
  Ki: 1800 nM

## CCCC[C@@H](C[C@@H](CCc1ccc(CCC)cc1)C(=O)N[C@H](C(=O)Nc1ccncc1)C(C)(C)C)C(=O)O
Stromelysin-1
  Ki: 11 nM
[1]
  Ki: 22 nM

## CCCC[C@@H](C[C@@H](CCc1ccc(-c2ccc(OC)cc2)cc1)C(=O)N[C@H](C(=O)NC)C(C)(C)C)C(=O)O
Stromelysin-1
  Ki: 13 nM
[1]
  Ki: 21 nM

## CCCC[C@@H](C[C@@H](CCc1ccc(-c2cccc(N)c2)cc1)C(=O)N[C@H](C(=O)Nc1ccccc1)C(C)(C)C)C(=O)O
Stromelysin-1
  Ki: 27 nM
[1]
  Ki: 280 nM

## CCCC[C@@H](C[C@@H](CCc1ccc(-c2cccc(C(F)(F)F)c2)cc1)C(=O)N[C@H](C(=O)NC)C(C)(C)C)C(=O)O
Stromelysin-1
  Ki: 1100 nM
[1]
  Ki: 3600 nM

## CC(C)C[C@H](NC(=O)[C@H](CCc1ccccc1)N[C@H](C)C(=O)O)C(=O)Nc1ccccc1 [L-696418]
Mus musculus
  ED50: > 100 mg/kg
